This experiment concerns MV-4-11 cells. Nature of the experiment: Gene expression microarray analysis (Affymetrix PrimeView) and GSEA. To be noted: MV-4-11 cells, 48 hours. Format: cell-based, human. The arrangement: RFU PODN (11730768_x_at) / Fold change /veh PODN (11730768_x_at) / RFU LINC00158 (11744669_a_at) / Fold change /veh LINC00158 (11744669_a_at) / RFU DUSP10 (11751237_a_at) / Fold change /veh DUSP10 (11751237_a_at) / RFU ID3 (11757404_x_at) / Fold change /veh ID3 (11757404_x_at) / RFU PLEKHG5 (11737974_s_at) / Fold change /veh PLEKHG5 (11737974_s_at) / RFU LRRC4B (11730491_at) / Fold change /veh LRRC4B (11730491_at) / RFU GIMAP4 (11747438_a_at) / Fold change /veh GIMAP4 (11747438_a_at) / RFU KRT8 (11758183_x_at) / Fold change /veh KRT8 (11758183_x_at) / RFU CNN1 (11734310_a_at) / Fold change /veh CNN1 (11734310_a_at) / RFU VPS37D (11726825_at) / Fold change /veh VPS37D (11726825_at) / RFU C10orf10 (11716522_x_at) / Fold change /veh C10orf10 (11716522_x_at) / RFU KIR2DL2 /// KIR2DL4 /// KIR2DL5A /// KIR2DL5B /// KIR2DS1 /// KIR2DS2 /// KIR2DS3 /// KIR2DS4 /// KIR3DL3 /// KIR3DL3 /// KIR3DS1 (11738374_at) / Fold change /veh KIR2DL2 /// KIR2DL4 /// KIR2DL5A /// KIR2DL5B /// KIR2DS1 /// KIR2DS2 /// KIR2DS3 /// KIR2DS4 /// KIR3DL3 /// KIR3DL3 /// KIR3DS1 (11738374_at) / RFU C1QL1 (11718748_at) / Fold change /veh C1QL1 (11718748_at) / RFU TMPRSS4 (11747572_a_at) / Fold change /veh TMPRSS4 (11747572_a_at) / RFU HAMP (11756126_x_at) / Fold change /veh HAMP (11756126_x_at) / RFU RNFT2 (11725882_a_at) / Fold change /veh RNFT2 (11725882_a_at) / RFU NR4A2 (11747474_a_at) / Fold change /veh NR4A2 (11747474_a_at) / RFU ABCC12 (11746883_a_at) / Fold change /veh ABCC12 (11746883_a_at) / RFU TMEM136 (11760407_x_at) / Fold change /veh TMEM136 (11760407_x_at) / RFU CLDN22 /// WWC2 (11732394_at) / Fold change /veh CLDN22 /// WWC2 (11732394_at) / RFU HLA-DPB1 (11760878_x_at) / Fold change /veh HLA-DPB1 (11760878_x_at) / RFU SPINT1 (11716480_a_at) / Fold change /veh SPINT1 (11716480_a_at) / RFU GAP43 (11754022_s_at) / Fold change /veh GAP43 (11754022_s_at) / RFU A4GNT (11735810_at) / Fold change /veh A4GNT (11735810_at) / RFU PRB3 (11715151_x_at) / Fold change /veh PRB3 (11715151_x_at) / RFU TUBB4B (11761932_at) / Fold change /veh TUBB4B (11761932_at) / RFU CAPN14 (11732068_a_at) / Fold change /veh CAPN14 (11732068_a_at) / RFU TMCC2 (11721928_a_at) / Fold change /veh TMCC2 (11721928_a_at) / RFU IRGQ (11745062_a_at) / Fold change /veh IRGQ (11745062_a_at) / RFU FAM174B (11720279_a_at) / Fold change /veh FAM174B (11720279_a_at) / RFU TMPRSS4 (11748680_a_at) / Fold change /veh TMPRSS4 (11748680_a_at) / RFU FAM212B (11763350_a_at) / Fold change /veh FAM212B (11763350_a_at) / RFU PLEKHG5 (11743358_a_at) / Fold change /veh PLEKHG5 (11743358_a_at) / RFU ZSCAN30 (11745921_a_at) / Fold change /veh ZSCAN30 (11745921_a_at) / RFU CMKLR1 (11741424_a_at) / Fold change /veh CMKLR1 (11741424_a_at) / RFU LOC101060620 /// MAPK8IP1 (11723275_at) / Fold change /veh LOC101060620 /// MAPK8IP1 (11723275_at) / RFU SPTSSB (11747773_x_at) / Fold change /veh SPTSSB (11747773_x_at) / RFU PRSS12 (11739890_at) / Fold change /veh PRSS12 (11739890_at) / RFU BIN1 (11741810_x_at) / Fold change /veh BIN1 (11741810_x_at) / RFU WNT11 (11732464_a_at) / Fold change /veh WNT11 (11732464_a_at) / RFU C10orf10 (11716521_a_at) / Fold change /veh C10orf10 (11716521_a_at) / RFU C5orf56 (11738089_at) / Fold change /veh C5orf56 (11738089_at) / RFU CYB561 (11721691_x_at) / Fold change /veh CYB561 (11721691_x_at) / RFU ANKRD19P (11752326_a_at) / Fold change /veh ANKRD19P (11752326_a_at) / RFU OR2T12 /// OR2T33 /// OR2T8 (11738714_s_at) / Fold change /veh OR2T12 /// OR2T33 /// OR2T8 (11738714_s_at) / RFU VCAN (11748164_a_at) / Fold change /veh VCAN (11748164_a_at) / RFU JSRP1 (11732532_at) / Fold change /veh JSRP1 (11732532_at) / RFU KRTAP10-11 (11738290_x_at) / Fold change /veh KRTAP10-11 (11738290_x_at) / RFU MYO3A (11730013_a_at) / Fold change /veh MYO3A (11730013_a_at) / RFU EBF3 (11725865_a_at) / Fold change /veh EBF3 (11725865_a_at) / RFU CAMK2N1 (11719241_x_at) / Fold change /veh CAMK2N1 (11719241_x_at) / RFU C5orf56 (11738088_a_at) / Fold change /veh C5orf56 (11738088_a_at) / RFU OLFML3 (11715873_a_at) / Fold change /veh OLFML3 (11715873_a_at) / RFU LOC100653217 /// NTM (11731650_a_at) / Fold change /veh LOC100653217 /// NTM (11731650_a_at) / RFU MAPK11 (11762145_a_at) / Fold change /veh MAPK11 (11762145_a_at) / RFU FIZ1 (11724087_x_at) / Fold change /veh FIZ1 (11724087_x_at) / RFU OASL (11726364_x_at) / Fold change /veh OASL (11726364_x_at) / RFU SOX15 (11748057_x_at) / Fold change /veh SOX15 (11748057_x_at) / RFU CD79A (11719716_a_at) / Fold change /veh CD79A (11719716_a_at) / RFU HIST1H1D (11736915_at) / Fold change /veh HIST1H1D (11736915_at) / RFU CASKIN2 (11723855_a_at) / Fold change /veh CASKIN2 (11723855_a_at) / RFU LOC730098 (11760151_x_at) / Fold change /veh LOC730098 (11760151_x_at) / RFU OR4N2 (11742367_at) / Fold change /veh OR4N2 (11742367_at) / RFU PRRT2 (11749266_a_at) / Fold change /veh PRRT2 (11749266_a_at) / RFU SNX32 (11753110_a_at) / Fold change /veh SNX32 (11753110_a_at) / RFU CDHR5 (11726645_a_at) / Fold change /veh CDHR5 (11726645_a_at) / RFU RCAN1 (11760418_a_at) / Fold change /veh RCAN1 (11760418_a_at) / RFU FAM167A (11723789_a_at) / Fold change /veh FAM167A (11723789_a_at) / RFU FAM26E (11764081_at) / Fold change /veh FAM26E (11764081_at) / RFU ISYNA1 (11749810_s_at) / Fold change /veh ISYNA1 (11749810_s_at) / RFU ACY1 (11761880_at) / Fold change /veh ACY1 (11761880_at) / RFU 11764098_at / Fold change /veh 11764098_at / RFU SAMD14 (11745864_x_at) / Fold change /veh SAMD14 (11745864_x_at) / RFU NPB (11741838_a_at) / Fold change /veh NPB (11741838_a_at) / RFU TMPRSS6 (11731388_a_at) / Fold change /veh TMPRSS6 (11731388_a_at) / RFU KRTAP10-2 (11738614_at) / Fold change /veh KRTAP10-2 (11738614_at) / RFU ARHGAP8 /// PRR5-ARHGAP8 (11727945_x_at) / Fold change /veh ARHGAP8 /// PRR5-ARHGAP8 (11727945_x_at) / RFU KRTAP5-7 /// NADSYN1 (11734609_at) / Fold change /veh KRTAP5-7 /// NADSYN1 (11734609_at) / RFU RASL12 (11751679_a_at) / Fold change /veh RASL12 (11751679_a_at) / RFU CDKN2B (11736163_a_at) / Fold change /veh CDKN2B (11736163_a_at) / RFU PRF1 (11729649_at) / Fold change /veh PRF1 (11729649_at) / RFU, ZNF638 /// ZNF638-IT1 / Fold change vs veh, ZNF638 /// ZNF638-IT1 / RFU, PANK3 / Fold change vs veh, PANK3 / RFU, SH3YL1 / Fold change vs veh, SH3YL1 / RFU, ZEB2 / Fold change vs veh, ZEB2 / RFU, NRIP1 / Fold change vs veh, NRIP1 / RFU, PTTG1IP / Fold change vs veh, PTTG1IP / RFU, CAPN2 / Fold change vs veh, CAPN2 / RFU, MED14 / Fold change vs veh, MED14 / RFU, SNORA58 / Fold change vs veh, SNORA58 / RFU, C1orf63 / Fold change vs veh, C1orf63 / RFU, LRRFIP1 / Fold change vs veh, LRRFIP1 / RFU, NDUFAF7 / Fold change vs veh, NDUFAF7 / RFU, SLC12A2 / Fold change vs veh, SLC12A2 / RFU, IBTK / Fold change vs veh, IBTK / RFU, ESF1 / Fold change vs veh, ESF1 / Fold change vs veh, TMEM50B / RFU, TAOK1 / Fold change vs veh, TAOK1 / RFU, ACBD3 / Fold change vs veh, ACBD3 / RFU, TMA16 / Fold change vs veh, TMA16 / RFU, RWDD3 / Fold change vs veh, RWDD3 / RFU, BCAT1 / Fold change vs veh, BCAT1 / RFU, EDEM3 / Fold change vs veh, EDEM3 / RFU, TMEM33 / Fold change vs veh, TMEM33 / RFU, WDR75 / Fold change vs veh, WDR75 / RFU, AHCTF1 / Fold change vs veh, AHCTF1 / RFU, TFRC / Fold change vs veh, TFRC / RFU, ZDHHC17 / Fold change vs veh, ZDHHC17 / RFU, NOM1 / Fold change vs veh, NOM1 / RFU, ARL8B / Fold change vs veh, ARL8B / RFU, ZBTB11 / Fold change vs veh, ZBTB11 / RFU, TAMM41 / Fold change vs veh, TAMM41 / RFU, KIAA1704 /// LOC100996395 / Fold change vs veh, KIAA1704 /// LOC100996395 / RFU, ING1 / Fold change vs veh, ING1 / RFU, TRMT61B / Fold change vs veh, TRMT61B / RFU, FUBP3 / Fold change vs veh, FUBP3 / RFU, TP53 / Fold change vs veh, TP53 / RFU, TNKS2 / Fold change vs veh, TNKS2 / RFU, ZFP14 / Fold change vs veh, ZFP14 / RFU, ACTR2 / Fold change vs veh, ACTR2 / RFU, PPP3R1 / Fold change vs veh, PPP3R1 / RFU, PIK3R1 / Fold change vs veh, PIK3R1 / RFU, HNRNPA1 / Fold change vs veh, HNRNPA1 / RFU, RNF170 / Fold change vs veh, RNF170 / RFU, ZNF28 / Fold change vs veh, ZNF28 / RFU, RNGTT / Fold change vs veh, RNGTT / RFU, OGT / Fold change vs veh, OGT / RFU, BRD1 / Fold change vs veh, BRD1 / RFU, MARS / Fold change vs veh, MARS / RFU, ZNF655 / Fold change vs veh, ZNF655 / RFU, FAHD1 / Fold change vs veh, FAHD1 / RFU, BDP1 / Fold change vs veh, BDP1 / RFU, LRRCC1 / Fold change vs veh, LRRCC1 / RFU, ARID1A / Fold change vs veh, ARID1A / RFU, ZNF146 / Fold change vs veh, ZNF146 / RFU, ZNF330 / Fold change vs veh, ZNF330 / RFU, GPN3 / Fold change vs veh, GPN3 / RFU, C9orf123 / Fold change vs veh, C9orf123 / RFU, N4BP2L2 / Fold change vs veh, N4BP2L2 / RFU, ARFIP1 / Fold change vs veh, ARFIP1 / RFU, FAM179B / Fold change vs veh, FAM179B / RFU, BCL10 / Fold change vs veh, BCL10 / RFU, UHRF1BP1L / Fold change vs veh, UHRF1BP1L / RFU, BET1 / Fold change vs veh, BET1 / RFU, CNOT2 / Fold change vs veh, CNOT2 / RFU, ZNF268 / Fold change vs veh, ZNF268 / Fold change vs veh, ZNF507 / RFU, DGCR2 / Fold change vs veh, DGCR2 / RFU, WDSUB1 / Fold change vs veh, WDSUB1 / Fold change vs veh, HSP90B1 /// MIR3652 / RFU, ADSS / Fold change vs veh, ADSS / RFU, GK / Fold change vs veh, GK / RFU, ZNF148 / Fold change vs veh, ZNF148 / RFU, TAF9 / Fold change vs veh, TAF9 / RFU, SLC1A5 / Fold change vs veh, SLC1A5 / RFU, SLMO2 / Fold change vs veh, SLMO2 / RFU, ABCC4 / Fold change vs veh, ABCC4 / RFU, LOC101060439 /// RAP1B / Fold change vs veh, LOC101060439 /// RAP1B / RFU, RFX7 / Fold change vs veh, RFX7 / RFU, GTPBP10 / Fold change vs veh, GTPBP10 / RFU, CNEP1R1 / Fold change vs veh, CNEP1R1 / RFU, BIVM-ERCC5 /// ERCC5 / Fold change vs veh, BIVM-ERCC5 /// ERCC5 / RFU, ILF3 / Fold change vs veh, ILF3 / RFU 11762660_at / Fold change /veh 11762660_at / RFU VCAN (11757783_s_at) / Fold change /veh VCAN (11757783_s_at) / RFU DDX43 (11728927_at) / Fold change /veh DDX43 (11728927_at) / RFU KRT8 (11758188_x_at) / Fold change /veh KRT8 (11758188_x_at) / RFU NKD1 (11759106_at) / Fold change /veh NKD1 (11759106_at) / RFU SRD5A1 (11742802_a_at) / Fold change /veh SRD5A1 (11742802_a_at) / RFU TPSAB1 /// TPSB2 (11721975_s_at) / Fold change /veh TPSAB1 /// TPSB2 (11721975_s_at) / RFU GSTM3 (11746129_a_at) / Fold change /veh GSTM3 (11746129_a_at) / RFU IL23R (11737362_x_at) / Fold change /veh IL23R (11737362_x_at) / RFU TMEM51 (11727254_a_at) / Fold change /veh TMEM51 (11727254_a_at) / RFU PIWIL2 (11732686_x_at) / Fold change /veh PIWIL2 (11732686_x_at) / RFU ORM1 (11744905_x_at) / Fold change /veh ORM1 (11744905_x_at) / RFU CCDC152 (11743942_at) / Fold change /veh CCDC152 (11743942_at) / RFU ECM1 (11717891_a_at) / Fold change /veh ECM1 (11717891_a_at) / RFU IL23R (11748794_a_at) / Fold change /veh IL23R (11748794_a_at) / RFU TNFAIP8L3 (11732012_x_at) / Fold change /veh TNFAIP8L3 (11732012_x_at) / RFU MBOAT4 (11741988_at) / Fold change /veh MBOAT4 (11741988_at) / RFU 11764193_at / Fold change /veh 11764193_at / RFU TMEM53 (11763286_at) / Fold change /veh TMEM53 (11763286_at) / RFU MAGEB2 (11727129_at) / Fold change /veh MAGEB2 (11727129_at) / RFU TMEM200A (11744735_a_at) / Fold change /veh TMEM200A (11744735_a_at) / RFU CCDC152 (11751479_a_at) / Fold change /veh CCDC152 (11751479_a_at) / RFU FAM211A (11726209_a_at) / Fold change /veh FAM211A (11726209_a_at) / RFU RGS16 (11746705_a_at) / Fold change /veh RGS16 (11746705_a_at) / RFU VCAN (11755009_s_at) / Fold change /veh VCAN (11755009_s_at) / RFU RHOB (11743442_s_at) / Fold change /veh RHOB (11743442_s_at) / RFU RGS16 (11720943_a_at) / Fold change /veh RGS16 (11720943_a_at) / RFU RGS16 (11720944_at) / Fold change /veh RGS16 (11720944_at) / RFU, VPS4B / Fold change vs veh, VPS4B / RFU, CREB1 / Fold change vs veh, CREB1 / RFU, DNAJC13 / Fold change vs veh, DNAJC13 / RFU, GNAQ / Fold change vs veh, GNAQ / RFU, CDK5R1 / Fold change vs veh, CDK5R1 / RFU, ZRANB3 / Fold change vs veh, ZRANB3 / RFU, CUL4A / Fold change vs veh, CUL4A / RFU, CCNY / Fold change vs veh, CCNY / RFU, UFL1 / Fold change vs veh, UFL1 / RFU, COG3 / Fold change vs veh, COG3 / RFU, DIAPH2 / Fold change vs veh, DIAPH2 / RFU, SKA2 / Fold change vs veh, SKA2 / RFU, AFF3 / Fold change vs veh, AFF3 / RFU, LMF1 / Fold change vs veh, LMF1 / RFU, IPO11 / Fold change vs veh, IPO11 / RFU, DFFB / Fold change vs veh, DFFB / RFU, FOXP1 / Fold change vs veh, FOXP1 / RFU, CARD8 / Fold change vs veh, CARD8 / RFU, STRN3 / Fold change vs veh, STRN3 / RFU, ADK / Fold change vs veh, ADK / RFU, RASSF2 / Fold change vs veh, RASSF2 / RFU, WIPF1 / Fold change vs veh, WIPF1 / RFU, LARP1B / Fold change vs veh, LARP1B / RFU, RASA1 / Fold change vs veh, RASA1 / RFU, RB1 / Fold change vs veh, RB1 / RFU, PPFIA1 / Fold change vs veh, PPFIA1 / RFU, MAT2A / Fold change vs veh, MAT2A / RFU, CCT5 / Fold change vs veh, CCT5 / RFU, WDR92 / Fold change vs veh, WDR92 / RFU, CUX1 / Fold change vs veh, CUX1 / RFU, TTC7A / Fold change vs veh, TTC7A / RFU, TMEM135 / Fold change vs veh, TMEM135 / RFU, DEPTOR / Fold change vs veh, DEPTOR / RFU, CPM / Fold change vs veh, CPM / RFU, DNAJB6 / Fold change vs veh, DNAJB6 / RFU, CACNA2D3 / Fold change vs veh, CACNA2D3 / RFU, DTX4 / Fold change vs veh, DTX4 / RFU, TFCP2 / Fold change vs veh, TFCP2 / RFU, GMCL1 /// GMCL1P1 / Fold change vs veh, GMCL1 /// GMCL1P1 / RFU, AEBP2 / Fold change vs veh, AEBP2 / RFU, SNHG1 /// SNORD22 /// SNORD25 /// SNORD26 /// SNORD27 /// SNORD28 /// SNORD29 /// SNORD31 / Fold change vs veh, SNHG1 /// SNORD22 /// SNORD25 /// SNORD26 /// SNORD27 /// SNORD28 /// SNORD29 /// SNORD31 / Fold change (Aza/veh), C12orf56 (ProbeSet 11735607_a_at) / Fold change (ACY-1035/veh), C12orf56 (ProbeSet 11735607_a_at) / Fold change (Aza/veh), FGFR1OP (ProbeSet 11751329_s_at) / Fold change (ACY-1035/veh), FGFR1OP (ProbeSet 11751329_s_at) / Fold change (Aza/veh), VPS36 (ProbeSet 11739960_a_at) / Fold change (ACY-1035/veh), VPS36 (ProbeSet 11739960_a_at) / RFU SYPL1 (11715823_x_at) / Fold change /veh SYPL1 (11715823_x_at) / RFU IGFBP7 (11715501_s_at) / Fold change /veh IGFBP7 (11715501_s_at) / RFU REEP3 (11722064_at) / Fold change /veh REEP3 (11722064_at) / RFU IGLL1 (11728026_x_at) / Fold change /veh IGLL1 (11728026_x_at): dose or concentration left out as unconfirmed.

These results are taken from PMC5218480 (PLoS ONE, 2017).

Regarding `Nc1ncn([C@@H]2O[C@H](CO)[C@@H](O)[C@H]2O)c(=O)n1` [azacitidine], the “Fold change /veh OASL (11726364_x_at)” value was 0.86.
